Key:
Format in all cases: cell-based
EP2 = EP2 (Homo sapiens, UniProt P43116); assay: cAMP assay, HEK-EBNA cells expressing EP2; set-up: expressed in transfected cells; host or cells: HEK-EBNA; details: value in parentheses in EP2 column, read-out: EP2 EC50 (nM), measurement of cAMP (data in parentheses)
Procedure: A 384-well drug plate was prepared to contain 6 test compounds, PGE2 and cAMP in 16 serial dilutions in triplicate, using a Biomek station. HEK-EBNA cells expressing a target PG receptor subtype (EP2 or EP4) were suspended in a stimulation buffer (HBSS, 0.1% BSA, 0.5 mM IBMX and 5 mM HEPES, pH 7.4) in a density of 10^4 cells/5 μl. The reaction was initiated by mixing 5 μL drug dilutions with 5 μl of HEK-EBNA cells in a well, carried out for 30 min at room temperature, and followed by the addition of 5 μl anti-cAMP acceptor beads in the control buffer with Tween-20 (25 mM NaCl, 0.03% Tween-20, 5 mM HEPES, pH7.4). After 30 min in the dark at room temperature, the mixtures were incubated with 15 μl biotinylated-cAMP/strepavidin donor beads in Lysis/Detection buffer (0.1% BSA, 0.3% Tween-20 and 5 mM HEPES, pH7.4) for 45 min at the room temperature. Fluorescence changes were read using a Fusion-alpha HT microplate reader.

hEP3A/Gqi5 = biological target: T1, hEP3A/Gqi5 (Homo sapiens, UniProt P43115); assay: FLIPR calcium signal, EP3; details: HEK-293(EBNA); for EC50: read-out: Ca2+ Signal-EC50 (nM) EP3
T1 construct: expressed in transfected cells
T1 sequence (P43115 1-390): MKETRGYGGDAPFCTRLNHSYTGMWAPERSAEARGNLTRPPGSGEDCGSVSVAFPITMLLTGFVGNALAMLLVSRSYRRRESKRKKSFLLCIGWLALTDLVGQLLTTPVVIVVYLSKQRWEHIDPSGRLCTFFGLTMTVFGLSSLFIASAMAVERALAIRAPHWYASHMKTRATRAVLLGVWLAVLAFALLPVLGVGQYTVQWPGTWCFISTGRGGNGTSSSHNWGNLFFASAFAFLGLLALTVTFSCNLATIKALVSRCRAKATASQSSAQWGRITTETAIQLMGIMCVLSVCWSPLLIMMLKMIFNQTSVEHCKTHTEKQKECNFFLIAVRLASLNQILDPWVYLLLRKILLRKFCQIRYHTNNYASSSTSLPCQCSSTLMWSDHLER
Procedure: (§1) HEK-293(EBNA) cells, stably expressing one type or subtype of recombinant human prostaglandin receptors (prostaglandin receptors expressed: hDP/Gqs5; hEP1; hEP2/Gqs5; hEP3A/Gqi5; hEP4/Gqs5; hFP; hIP; hTP), were cultured in 100 mm culture dishes in high-glucose DMEM medium containing 10% fetal bovine serum, 2 mM 1-glutamine, 250 μg/ml geneticin (G418) and 200 μg/ml hygromycin B as selection markers, and 100 units/ml penicillin G, 100 μg/ml streptomycin and 0.25 μg/ml amphotericin B.
(§2) Cells were seeded at a density of 5×10^4 cells per well in Biocoat® Poly-D-lysine-coated black-wall, clear-bottom 96-well plates (Becton-Dickinson) and allowed to attach overnight in an incubator at 37° C. Cells were then washed two times with HBSS-HEPES buffer (Hanks Balanced Salt Solution without bicarbonate and phenol red, 20 mM HEPES, pH 7.4) using a Denley Cellwash plate washer (Labsystems). After 45 minutes of dye-loading in the dark, using the calcium-sensitive dye Fluo-4 AM at a final concentration of 2 μM, plates were washed four times with HBSS-HEPES buffer to remove excess dye leaving 100 μl in each well. Plates were re-equilibrated to 37° C. for a few minutes.
(§3) Cells were excited with an Argon laser at 488 nm, and emission was measured through a 510-570 nm bandwidth emission filter (FLIPR™, Molecular Devices, Sunnyvale, Calif.). Drug solution was added in a 50 μl volume to each well to give the desired final concentration. The peak increase in fluorescence intensity was recorded for each well. On each plate, four wells each served as negative (HBSS-HEPES buffer) and positive controls (standard agonists: BW245C (hDP); PGE2 (HEP1; hEP2/Gqs5; hEP3A/Gqi5; hEP4/Gqs5); PGF2α (hFP); carbacyclin (hIP); U-46619 (hTP), depending on receptor). The peak fluorescence change in each drug-containing well was then expressed relative to the controls.
(§4) Compounds were tested in a high-throughput (HTS) or concentration-response (CoRe) format. In the HTS format, forty-four compounds per plate were examined in duplicates at a concentration of 10^−5 M. To generate concentration-response curves, four compounds per plate were tested in duplicates in a concentration range between 10^−5 and 10^−11 M. The duplicate values were averaged. In either, HTS or CoRe format each compound was tested on at least 3 separate plates using cells from different passages to give an n≧3.

hTP = biological target: T2, hTP (Homo sapiens, UniProt P21731); assay: FLIPR calcium signal, TP; details: HEK-293(EBNA)
T2 construct: expressed in transfected cells
T2 sequence (P21731 1-343): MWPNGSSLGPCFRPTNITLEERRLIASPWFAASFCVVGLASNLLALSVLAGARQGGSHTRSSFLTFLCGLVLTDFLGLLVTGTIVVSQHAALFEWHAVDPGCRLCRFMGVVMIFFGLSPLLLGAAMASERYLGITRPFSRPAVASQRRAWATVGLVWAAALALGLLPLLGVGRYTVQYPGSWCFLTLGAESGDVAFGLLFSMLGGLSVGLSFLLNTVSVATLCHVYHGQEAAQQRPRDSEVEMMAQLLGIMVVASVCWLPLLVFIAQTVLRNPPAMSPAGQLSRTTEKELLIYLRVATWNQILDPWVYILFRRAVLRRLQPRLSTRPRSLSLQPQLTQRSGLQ
Procedure: as §1, §2, §3, §4

hDP/Gqs5 = biological target: T3, hDP/Gqs5 (Homo sapiens, UniProt Q13258); assay: FLIPR calcium signal, DP; details: HEK-293(EBNA)
T3 construct: expressed in transfected cells
T3 sequence (Q13258 1-359): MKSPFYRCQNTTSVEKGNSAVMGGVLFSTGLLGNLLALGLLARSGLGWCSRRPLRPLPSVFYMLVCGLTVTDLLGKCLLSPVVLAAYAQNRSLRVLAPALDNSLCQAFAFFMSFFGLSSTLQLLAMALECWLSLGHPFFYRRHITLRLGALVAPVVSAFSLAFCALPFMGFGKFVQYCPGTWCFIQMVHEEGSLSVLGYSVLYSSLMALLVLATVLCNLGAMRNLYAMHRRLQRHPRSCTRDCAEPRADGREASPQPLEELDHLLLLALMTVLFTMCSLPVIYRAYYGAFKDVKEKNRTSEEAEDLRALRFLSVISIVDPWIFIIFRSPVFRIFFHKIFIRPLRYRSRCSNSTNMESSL
Procedure: as §1, §2, §3, §4

EP2, sequence (P43116 whole entry): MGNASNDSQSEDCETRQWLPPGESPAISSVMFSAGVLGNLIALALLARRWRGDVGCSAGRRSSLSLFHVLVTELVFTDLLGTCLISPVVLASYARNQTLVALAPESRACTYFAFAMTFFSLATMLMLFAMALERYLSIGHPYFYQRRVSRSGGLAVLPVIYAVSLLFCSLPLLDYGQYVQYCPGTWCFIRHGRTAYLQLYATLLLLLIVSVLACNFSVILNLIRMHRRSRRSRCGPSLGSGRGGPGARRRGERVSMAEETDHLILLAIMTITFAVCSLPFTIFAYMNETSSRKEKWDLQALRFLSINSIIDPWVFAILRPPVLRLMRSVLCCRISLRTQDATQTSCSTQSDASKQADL

SMILES | EC50 (EP2) | Ca2+ Signal-EC50 (nM) EP3 (hEP3A/Gqi5) | Ca2+ Signal-EC50 (nM) TP (hTP) | Ca2+ Signal-EC50 (nM) DP (hDP/Gqs5) | EC50 (hEP3A/Gqi5) | EC50 (hTP; read-out: Ca2+ Signal-EC50 (nM) TP)
O=C(O)CCC/C=C\C[C@@H]1[C@@H](c2ccc(C(O)CCC3CCCCC3)cc2)[C@H](O)C[C@H]1Cl (stereo partly drawn) [Entry 15, (Z)-7-{(1R,2S,3R,5R)-5-Chloro-2-[4-(3-cyclohexyl-1-hydroxy-propyl)-phenyl]-3-hydroxy-cyclopentyl}-hept-5-enoic acid] | 176 nM |  | not active | not active | 2220 nM | 
O=C(O)CCCCCC[C@@H]1[C@@H](c2ccc(C(O)CC3CCCCC3)cc2)[C@H](O)C[C@H]1Cl (stereo partly drawn) [Entry 18, 7-{(1R,2S,3R,5R)-5-Chloro-2-[4-(2-cyclohexyl-1-hydroxy-ethyl)-phenyl]-3-hydroxy-cyclopentyl}-heptanoic acid] | 2660 nM | not active | not active | not active |  | 
O=C(O)CCCCCC[C@@H]1[C@@H](c2ccc(C(O)Cc3ccccc3)cc2)[C@H](O)C[C@H]1Cl (stereo partly drawn) [Entry 22, 7-{(1 R,2S,3R,5R)-5-Chloro-3-hydroxy-2-[4-(1-hydroxy-2-phenyl-ethyl)-phenyl]-cyclopentyl}-heptanoic acid] | 59 nM | not active | not active | not active |  | 
O=C(O)CCC/C=C\C[C@@H]1[C@@H](c2ccc(C(O)CCc3ccccc3)cc2)[C@H](O)C[C@H]1Cl (stereo partly drawn) [Entry 23, (Z)-7-{(1R,2S,3R,5R)-5-Chloro-3-hydroxy-2-[4-(1-hydroxy-3-phenyl-propyl)-phenyl]-cyclopentyl}-hept-5-enoic acid] | 125 nM |  | not active | not active | 13700 nM | 
CCCCCC(O)c1cccc([C@@H]2[C@@H](C/C=C\CCCC(=O)O)[C@H](Cl)C[C@H]2O)c1 (stereo partly drawn) [Entry 29, (Z)-7-{(1R,2S,3R,5R)-5-Chloro-3-hydroxy-2-[3-(1-hydroxy-hexyl)-phenyl]-cyclopentyl}-hept-5-enoic acid] | 38 nM |  | not active | not active | 37 nM | 
CCCCC(O)c1cccc([C@@H]2[C@@H](C/C=C\CCCC(=O)O)[C@H](Cl)C[C@H]2O)c1 (stereo partly drawn) [Entry 30, (Z)-7-{(1R,2S,3R,5R)-5-Chloro-3-hydroxy-2-[3-(1-hydroxy-pentyl)-phenyl]-cyclopentyl}-hept-5-enoic acid] | 10 nM |  |  | not active | 23 nM | 3750 nM

Next, values leading:

EC50 (EP2) | Ca2+ Signal-EC50 (nM) EP3 (hEP3A/Gqi5) | Ca2+ Signal-EC50 (nM) TP (hTP) | Ca2+ Signal-EC50 (nM) DP (hDP/Gqs5) | EC50 (hEP3A/Gqi5) | EC50 (hTP; read-out: Ca2+ Signal-EC50 (nM) TP) | SMILES
1060 nM | not active | not active | not active |  |  | CCCCCC(O)c1ccc([C@@H]2[C@@H](CCCc3ncc(C(=O)O)s3)[C@H](Cl)C[C@H]2O)cc1 (stereo partly drawn) [Entry 5, 2-(3-{(1R,2S,3R,5R)-5-Chloro-3-hydroxy-2-[4-(1-hydroxy-hexyl)-phenyl]-cyclopentyl}-propyl)-thiazole-5-carboxylic acid]
324 nM |  | not active | not active | 7230 nM |  | CCCCCC(O)c1ccc([C@@H]2[C@@H](C/C=C\CCCC(=O)O)[C@@H](Cl)C[C@H]2O)cc1 (stereo partly drawn) [Entry 9, (Z)-7-{(1R,2S,3R,5S)-5-Chloro-3-hydroxy-2-[4-(1-hydroxy-hexyl)-phenyl]-cyclopentyl}-hept-5-enoic acid]
76 nM |  | not active | not active | 477 nM |  | CCCCCC(O)c1ccc([C@@H]2[C@@H](CCCCCCC(=O)O)[C@H](Cl)C[C@H]2O)cc1 (stereo partly drawn) [Entry 14, 7-{(1R,2S,3R,5R)-5-Chloro-3-hydroxy-2-[4-(1-hydroxy-hexyl)-phenyl]-cyclopentyl}-heptanoic acid]
5260 nM |  | not active | not active | 1710 nM |  | O=C(O)CCCCCC[C@@H]1[C@@H](c2ccc(C(O)CCC3CCCCC3)cc2)[C@H](O)C[C@H]1Cl (stereo partly drawn) [Entry 16, 7-{(1R,2S,3R,5R)-5-Chloro-2-[4-(3-cyclohexyl-1-hydroxy-propyl)-phenyl]-3-hydroxy-cyclopentyl}-heptanoic acid]
628 nM |  | not active | not active | 8830 nM |  | O=C(O)CCCCCC[C@@H]1[C@@H](c2ccc(C(O)CCc3ccccc3)cc2)[C@H](O)C[C@H]1Cl (stereo partly drawn) [Entry 24, 7-{(1R,2S,3R,5R)-5-Chloro-3-hydroxy-2-[4-(1-hydroxy-3-phenyl-propyl)-phenyl]-cyclopentyl}-heptanoic acid]
12 nM |  | not active | not active | 5930 nM |  | CCCCCCC(O)c1ccc([C@@H]2[C@@H](C/C=C\CCCC(=O)O)[C@H](Cl)C[C@H]2O)cc1 (stereo partly drawn) [Entry 25, (Z)-7-{(1R,2S,3R,5R)-5-Chloro-3-hydroxy-2-[4-(1-hydroxy-heptyl)-phenyl]-cyclopentyl}-hept-5-enoic acid]
7 nM | not active | not active | not active |  |  | CCCC(O)c1ccc([C@@H]2[C@@H](C/C=C\CCCC(=O)O)[C@H](Cl)C[C@H]2O)cc1 (stereo partly drawn) [Entry 26, (Z)-7-{(1R,2S,3R,5R)-5-Chloro-3-hydroxy-2-[4-(1-hydroxy-butyl)-phenyl]-cyclopentyl}-hept-5-enoic acid]
